“Also recorded” adds a separate entry of the source. Residues, ends and D or L forms follow the SMILES beside them. *: point of attachment. Oxazole(5-CO) = O=C(c1cnco1)*; Crotonyl(E) = C/C=C/C(=O)*; 2Furoyl = O=C(c1ccco1)*; Cbz = O=C(OCc1ccccc1)*; X1 = O=C(c1ccoc1)*
Columns and labels:
Format in all cases: binding
AF9 YEATS domain [1] = molecular target: T1, AF9 YEATS domain (Homo sapiens, UniProt P42568); test: Photo-cross-linking-based competition assay (photoaffinity probe, click chemistry, in-gel fluorescence); conditions: for preliminary screening of competitors: inhibitory activity on AF9 YEATS domain: fluorescent signal intensity at 0.3 μM compared with peptide control; for IC50: competition with photoaffinity probe, in-gel fluorescence
T1 construct: His-AF9 (1-138); His (N); made in house; host or cells: E. coli Rosetta
T1 sequence (P42568 1-138): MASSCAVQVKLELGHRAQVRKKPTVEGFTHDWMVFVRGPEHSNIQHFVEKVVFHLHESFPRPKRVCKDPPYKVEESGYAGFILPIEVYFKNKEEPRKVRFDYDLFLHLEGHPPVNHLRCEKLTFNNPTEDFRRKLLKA
Procedure: Mobile phase used were water with 0.1% trifluoroacetic acid (buffer A) and 90% acetonitrile in water with 0.1% trifluoroacetic acid (buffer B). The purity (>95%) and identity of peptides were confirmed by LC-MS. The inhibitory activities of the inhibitors were determined by a photo-cross-linking-based competition assay. […] The reactions were incubated for 1 h at r.t . . . . The reactions were quenched by adding 5 volumes of ice-cold acetone and placed at −20° C. overnight to precipitate proteins. After protein precipitation, samples were centrifuged at 6000×g for 5 min at 4° C. The supernatant was discarded and the pellet was washed with ice-cooled methanol twice and air-dried for 10 min. […] Samples were then resolved by SDS-PAGE. The labeled proteins were visualized by scanning the gel on a Typhoon 9410 variable mode imager (excitation 532 nm, emission filter 580 nm). A photo-cross-linking based method was used in this study to estimate inhibitory activity (FIG. 28). This method requires the use of a photoaffinity probe. The probe (probe 1 (SEQ ID NO:48), see below) is derived from a crotonylated peptide, ligand of the protein, carrying a photo-cross-linker and a terminal alkyne as bioorthogonal. The YEATS domain is incubated and bound to the probe through Kcr-dependent recognition. Upon UV-irradiation, the photo-cross-linker is activated and rapidly cross-linked to the protein, converting the non-covalent protein-probe interaction into a covalent linkage. The probe-labeled protein is subsequently conjugated to an azide-functionalized fluorescence dye (for example, rhodamine-N3, Rho-N3) via Cu(I)-catalyzed azide-alkyne cycloaddition (CuAAC, or “click” chemistry). After SDS-PAGE, the protein can be visualized by in-gel fluorescence scanning. If photo-cross-linking of the YEATS domain with photoaffinity probe is performed in the presence of an inhibitor, which occupies the Kcr binding pocket of the YEATS domain and thus inhibits the protein-probe interaction, the percentage of the YEATS domain in the sample that is labeled by the probe will be reduced. The in-gel fluorescence intensity detected will also be decreased. By varying the concentration of inhibitor added in the sample and quantifying the resulting fluorescence intensities, a competition curve of the inhibitor toward the protein-probe interaction will be obtained, which can be used to estimate the IC50 value. Due to the covalent nature of photo-cross-linking, weak protein-protein interactions can be captured and eventually visualized. The protein concentration used in the assay can be as low as several nanograms per microliter, while the fluorescence signal can still be robustly detected and quantified.

AF9 YEATS domain [2] = molecular target: T1, AF9 YEATS domain; test: Isothermal titration calorimetry (ITC); conditions: for Kd / N (sites) / ΔS / ΔH: ITC; for binding enhancement over the native crotonyl group: ITC Kd ratio; for ΔH: Table 3
Procedure: ^1H and ^13C NMR spectra were recorded on Bruker UltraShield 400 or 600 MHz spectrometers and were calibrated using residual undeuterated solvent as an internal reference. Chemical shifts were reported in ppm, and coupling constant J was reported in Hz. Peptides were analyzed by LC-MS with an Agilent 1260 Infinity HPLC system connected to a Thermo Finnigan LCQ DecaXP MS detector. Peptides were purified on a preparative HPLC system with Waters 2535 Quaternary Gradient Module, Waters 515 HPLC pump, Waters SFO System Fluidics Organizer, and Waters 2767 Sample Manager. Photo-cross-linking was performed with an ENF-260C/FE hand-hang UV lamp (Spectroline). In-gel fluorescence scanning was performed using a Typhoon 9410 variable mode imager from GE Healthcare Life Sciences (excitation 532 nm, emission 580 nm). Images of Coomassie blue staining were acquired by MyECL Imager from Thermo Scientific. All images were processed by ImageJ software (National Institutes of Health), and contrast was adjusted appropriately. ITC experiments were performed with a MicroCal iTC200 titration calorimeter (MicroCal). IC50 and dissociation constants were fit with Origin 7.0 software package (OriginLab).
To further validate the reliability of the results obtained from the photo-cross-linking-based competition assay, we performed isothermal titration calorimetry (ITC) to determine the direct binding affinities of the inhibitors toward the AF9 YEATS domain. […] The ITC measurements were in agreement with the IC50 data, indicating the reliability of the results obtained from the photo-cross-linking-based competition assay.

ENL YEATS domain = molecular target: T2, ENL YEATS domain (Homo sapiens, UniProt Q03111); test: Photo-cross-linking-based competition assay; conditions: competition with photoaffinity probe, in-gel fluorescence
T2 construct: His-SUMO-ENL (1-138); His (N); SUMO (N); made in house; host or cells: E. coli Rosetta
T2 sequence (Q03111 1-138): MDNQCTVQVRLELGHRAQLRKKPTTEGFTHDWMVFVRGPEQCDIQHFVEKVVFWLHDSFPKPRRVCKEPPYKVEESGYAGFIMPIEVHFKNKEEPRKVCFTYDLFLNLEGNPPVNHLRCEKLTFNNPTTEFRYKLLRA

For “43 (Cbz-QTAKK-NH2; not fully specified (residue 5); also: K5: modified crotonyl group with attached furancarbonyl side chain) [Compound 43]”, the “preliminary screening of competitors: inhibitory activity on AF9 YEATS domain” value (AF9 YEATS domain [1]) was “interact with the AF9 YEATS domain weakly”.
With “45 (Cbz-QTAQK-NH2; not fully specified (residue 5); also: K5: modified crotonyl group with attached furancarbonyl side chain) [Compound 45]” the “preliminary screening of competitors: inhibitory activity on AF9 YEATS domain” value (AF9 YEATS domain [1]) was “interact with the AF9 YEATS domain weakly”.
With “65 (Cbz-NTARK-NH2; not fully specified (residue 5); also: K5: modified crotonyl group with attached furancarbonyl side chain) [Compound 65]” the “preliminary screening of competitors: inhibitory activity on AF9 YEATS domain” value (AF9 YEATS domain [1]) was “activity of inhibitor drops”.
In the case of C[C@H](NC(=O)[C@@H](NC(=O)[C@H](CCC(N)=O)NC(=O)[C@@H](N)CCCCN)[C@@H](C)O)C(=O)N[C@@H](CCCNC(=N)N)C(=O)N[C@@H](CCCCNC(=O)c1ccco1)C(=O)N[C@@H](CO)C(=O)N[C@H](C(=O)NCC(=O)NCC(N)=O)[C@@H](C)O [Compound 7] (H-KQTARK(2Furoyl)STGG-NH2), the IC50 (AF9 YEATS domain [1]) is reported as 1300 nM, the Kd (AF9 YEATS domain [2]) is reported as 3300 nM and the “N (sites)” value (AF9 YEATS domain [2]) is reported as 0.91 ± 0.01 sites. The ΔS (AF9 YEATS domain [2]) was −15.9 cal/mol/deg, the “binding enhancement over the native crotonyl group” value (AF9 YEATS domain [2]) was 4.5 fold and the ΔH (AF9 YEATS domain [2]) was -12.23 ± 0.11 kcal/mol.
Molecule C[C@H](NC(=O)[C@@H](NC(=O)[C@H](CCC(N)=O)NC(=O)[C@@H](N)CCCCN)[C@@H](C)O)C(=O)N[C@@H](CCCNC(=N)N)C(=O)N[C@@H](CCCCNC(=O)c1ccoc1)C(=O)N[C@@H](CO)C(=O)N[C@H](C(=O)NCC(=O)NCC(N)=O)[C@@H](C)O [Compound 8] (H-KQTARK(X1)STGG-NH2) has an IC50 (AF9 YEATS domain [1]) of 1700 nM.
C[C@H](NC(=O)[C@@H](NC(=O)[C@H](CCC(N)=O)NC(=O)[C@@H](N)CCCCN)[C@@H](C)O)C(=O)N[C@@H](CCCNC(=N)N)C(=O)N[C@@H](CCCCNC(=O)c1cnco1)C(=O)N[C@@H](CO)C(=O)N[C@H](C(=O)NCC(=O)NCC(N)=O)[C@@H](C)O [Compound 13] (H-KQTARK(Oxazole(5-CO))STGG-NH2) was tested, and the IC50 (AF9 YEATS domain [1]) was 740 nM, the Kd (AF9 YEATS domain [2]) was 1000 nM and the “N (sites)” value (AF9 YEATS domain [2]) was 1.04 ± 0.02 sites. For the same molecule, the ΔS (AF9 YEATS domain [2]) was −13.8 cal/mol/deg, the “binding enhancement over the native crotonyl group” value (AF9 YEATS domain [2]) was 14.8 fold and the ΔH (AF9 YEATS domain [2]) was -12.29 ± 0.376 kcal/mol.
With C[C@H](NC(=O)[C@@H](NC(=O)[C@@H](N)CCC(N)=O)[C@@H](C)O)C(=O)N[C@@H](CCCNC(=N)N)C(=O)N[C@@H](CCCCNC(=O)c1ccco1)C(N)=O [Compound 24] the IC50 (AF9 YEATS domain [1]) was 4500 nM.
For C[C@H](NC(=O)[C@@H](NC(=O)[C@H](CCC(N)=O)NC(=O)[C@@H](N)CCCCN)[C@@H](C)O)C(=O)N[C@@H](CCCNC(=N)N)C(=O)N[C@@H](CCCCNC(=O)c1ccco1)C(N)=O [Compound 25] (H-KQTARK(2Furoyl)-NH2; N-terminus and C-terminus assumed), the IC50 (AF9 YEATS domain [1]) was 460 nM.
For CC(C)C[C@H](NC(=O)[C@@H](NC(=O)[C@H](CCC(N)=O)NC(=O)OCc1ccccc1)[C@@H](C)O)C(=O)N[C@@H](CCCNC(=N)N)C(=O)N[C@@H](CCCCNC(=O)c1ccco1)C(N)=O [Compound 47] (Cbz-QTLRK(2Furoyl)-NH2; N-terminus and C-terminus assumed), the “preliminary screening of competitors: inhibitory activity on AF9 YEATS domain” value (AF9 YEATS domain [1]; listed as A7-L) was “comparable results; also recorded: comparable inhibitory activities”.
For C[C@@H](O)[C@H](NC(=O)[C@H](CCC(N)=O)NC(=O)OCc1ccccc1)C(=O)N[C@@H](Cc1c[nH]c2ccccc12)C(=O)N[C@@H](CCCNC(=N)N)C(=O)N[C@@H](CCCCNC(=O)c1ccco1)C(N)=O [Compound 49] (Cbz-QTWRK(2Furoyl)-NH2; N-terminus and C-terminus assumed), the “preliminary screening of competitors: inhibitory activity on AF9 YEATS domain” value (AF9 YEATS domain [1]; listed as A7-W) was “comparable results; also recorded: comparable inhibitory activities”.
In the case of C[C@H](NC(=O)[C@H](C)NC(=O)[C@H](CCC(N)=O)NC(=O)OCc1ccccc1)C(=O)N[C@@H](CCCNC(=N)N)C(=O)N[C@@H](CCCCNC(=O)c1ccco1)C(N)=O [Compound 53] (Cbz-QAARK(2Furoyl)-NH2; N-terminus and C-terminus assumed), the “preliminary screening of competitors: inhibitory activity on AF9 YEATS domain” value (AF9 YEATS domain [1]) is reported as “comparable inhibitory activities”.
C[C@H](NC(=O)[C@H](CO)NC(=O)[C@H](CCC(N)=O)NC(=O)OCc1ccccc1)C(=O)N[C@@H](CCCNC(=N)N)C(=O)N[C@@H](CCCCNC(=O)c1ccco1)C(N)=O [Compound 55] (Cbz-QSARK(2Furoyl)-NH2; N-terminus and C-terminus assumed) was tested, and the “preliminary screening of competitors: inhibitory activity on AF9 YEATS domain” value (AF9 YEATS domain [1]) was “comparable inhibitory activities”.
In the case of C[C@H](NC(=O)[C@@H](NC(=O)[C@H](CCC(N)=O)NC(=O)Cc1ccc2ccccc2c1)[C@@H](C)O)C(=O)N[C@@H](CCCNC(=N)N)C(=O)N[C@@H](CCCCNC(=O)c1ccco1)C(N)=O [Compound 74], the IC50 (AF9 YEATS domain [1]) is reported as 226 nM and the “preliminary screening of competitors: inhibitory activity on AF9 YEATS domain” value (AF9 YEATS domain [1]; listed as Cbz-4) is reported as “comparable binding affinity; also recorded: comparable inhibitory activities”.
Molecule C[C@@H]1NC(=O)[C@H]([C@H](C)O)NC(=O)[C@@H](NC(=O)OCc2ccccc2)CCCCNC(=N)NCCC[C@H](C(=O)N[C@@H](CCCCNC(=O)c2ccco2)C(N)=O)NC1=O [Compound 78] has an IC50 (ENL YEATS domain) of 43600 nM and an IC50 (AF9 YEATS domain [1]) of 1800 nM.
With C[C@@H]1NC(=O)[C@H]([C@H](C)O)NC(=O)[C@@H](NC(=O)OCc2ccccc2)Cn2cc(nn2)CNC(=N)NCCC[C@H](C(=O)N[C@@H](CCCCNC(=O)c2cnco2)C(N)=O)NC1=O [Compound 82] the IC50 (ENL YEATS domain) was 9230 nM and the IC50 (AF9 YEATS domain [1]) was 5100 nM.
For C/C=C/C(=O)NCCCC[C@H](NC(=O)[C@H](CCCNC(=N)N)NC(=O)[C@H](C)NC(=O)[C@@H](NC(=O)[C@H](CCC(N)=O)NC(=O)[C@@H](N)CCCCN)[C@@H](C)O)C(=O)N[C@@H](CO)C(=O)N[C@H](C(=O)NCC(=O)NCC(N)=O)[C@@H](C)O [Compound 85, reference compound] (H-KQTARK(Crotonyl(E))STGG-NH2; N-terminus and C-terminus assumed), the IC50 (AF9 YEATS domain [1]) was 6000 nM, the “N (sites)” value (AF9 YEATS domain [2]) was 0.96 ± 0.02 sites and the ΔS (AF9 YEATS domain [2]) was −17.8 cal/mol/deg. The ΔH (AF9 YEATS domain [2]) was -11.92 ± 0.423 kcal/mol.
Work on C[C@H](NC(=O)[C@@H](NC(=O)[C@H](CCC(N)=O)NC(=O)OCc1ccccc1)[C@@H](C)O)C(=O)N[C@@H](CCCNC(=N)N)C(=O)N[C@@H](CCCCNC(=O)c1ccco1)C(N)=O [peptide control] yielded an IC50 (AF9 YEATS domain [1]) of 189 nM.

— patent US11512111B2, “Yeats inhibitors and methods of use thereof” (The University of Hong Kong, priority 2017, dated 2022)
